Laboratory results: paper PMC4117522, “Proteasome Inhibitors Alter Levels of Intracellular Peptides in HEK293T and SH-SY5Y Cells” (PLoS ONE, 2014)
Several values for one entry are separate records, joined by “and”; a condition that tells them apart may be missing. Equal entries are not always repeated.

Tested on: HEK293T cells
Experiment: Quantitative peptidomics (TMAB isotopic labels, LC-MS/MS) of inhibitor-treated HEK293T cells
Format: cell-based, human
Settings: HEK
Method: HEK293T and SH-SY5Y cells were grown to 80–90% confluence in DMEM and RPMI supplemented with 10% fetal bovine serum and penicillin/streptomycin. A single plate of cells (150 mm×25 mm) was used for each group. At the start of the experiment, media were removed from the plates and cells were washed with DPBS (138 mM NaCl, 8.06 mM Na2HPO4, 2.67 mM KCl, 1.47 mM KH2PO4, 0.9 mM CaCl2 and 0.49 mM MgCl2). This was followed by addition of serum-free media containing the proteasome or aminopeptidase inhibitors, or 0.05% DMSO as a control for the inhibitors that were soluble in DMSO. Each experiment consisted of two control groups and two or three replicate groups of cells treated with one of the inhibitors. The cells were incubated at 37°C for 20 minutes, following which media containing the inhibitor was removed, cells were washed with DPBS, detached from the plate by scraping into DPBS (without trypsin), and centrifuged at 800×g for 5 min. The wash buffer was supplemented with the appropriate inhibitor at the same concentration as used for the treatment, thereby ensuring that the changes induced in peptide levels were not reversed during harvesting of cells due to possible dissociation of the reversible inhibitors. The wash time (including centrifugation) was 15 minutes, for a total treatment time of 35 minutes. After centrifugation, the cell pellet was resuspended in 1 ml of 80°C water and incubated in an 80°C water bath for 20 minutes to inactivate proteases. The mixture was again centrifuged (13,000×g, 30 min, 4°C) and was stored at −80°C overnight. For peptide extraction, the samples were thawed and centrifuged again. The lysate was subsequently cooled on ice and acidified with HCl to a final concentration of 10 mM. After 15 min incubation on ice, the lysate was centrifuged at 13,000×g for 30 min at 4°C. To the supernatant, 250 µL of dibasic sodium phosphate (0.4 M, pH 9.5) was added and the mixture was stored at −80°C until labeling.
The labeling protocol has been earlier described in detail. Each group within an experiment (control/treated) was labeled with a different isotopic tag. The TMAB-NHS labels were dissolved in DMSO to a concentration of 400 µg/µL and 15 mg of label was used per 150 mm plate of cells. […] At the beginning, the pH of the peptide extract was adjusted to 9.5 with 1 M NaOH. Labeling was performed over 8 rounds; 4.69 µL of the label was added to the extract every 20 min. The pH was measured between each round and if necessary, brought back to 9.5 for the first five rounds. For rounds 6–8, the pH was not adjusted after the addition of the TMAB-NHS reagent. After the final round of label addition, the pH was adjusted to 9.5 again and the extracts were incubated at room temperature for 90 min. Thereafter, 30 µL of 2.5 M glycine was added to quench any unreacted label. Following 40 min incubation at room temperature, the labeled extracts for a single experiment were pooled and filtered through Amicon Ultracel-10 K units. It is important to ensure that only N-terminal amines and lysine side-chain amines of peptides are TMAB-labeled and not tyrosines. To hydrolyze any labeled tyrosine, 30 µL of a 2 M solution of hydroxylamine hydrochloride (pH 3.7) was added over three rounds to the pooled and filtered sample. The pH was measured after the addition of hydroxylamine and adjusted to 9.0 with 1 M NaOH. The samples were desalted through PepClean C-18 spin columns (Thermo Scientific, Rockford, IL, USA) by following manufacturer’s instructions. Peptides were eluted using 160 µL of 0.5% TFA and 70% acetonitrile, frozen at −80°C and then lyophilized in a vacuum centrifuge and stored at −80°C until analysis by mass spectrometry.
The LC-MS/MS experiments were performed on a Synapt G2 mass spectrometer coupled to a NanoAcquity capillary liquid chromatography system (Waters Co., Milford, MA, USA).

CC[C@H](C)[C@H](NC(=O)[C@H]([C@@H](C)CC)N(C)C(C)=O)C(=O)N[C@H](C(=O)N[C@@H](CC(C)C)C(=O)[C@@]1(C)CO1)[C@@H](C)O [Epox.]
Relative Levels of peptide AAETVTKGGIMLPEKSQGKVLQA (HSPE1) (0.2 uM, 1h): < 0.20
Relative Levels of peptide ADKVPKTAENFRAL (PPIA) (0.2 uM, 1h): < 0.20
Relative Levels of peptide AGAAVDELGKVLTPTQV (PEBP1) (0.2 uM, 1h): < 0.20
Relative Levels of peptide AKADGIVSKNF (RPS21) (0.2 uM, 1h): < 0.20
Relative Levels of peptide APIKVGDAIPAVEVF (PRDX5) (0.2 uM, 1h): < 0.20
Relative Levels of peptide APPTAYIDFARQK (TPI1) (0.2 uM, 1h): 0.58 and 0.64
Relative Levels of peptide ASQPDVDGFLVGGASLKPEFVDIINA (TPI1) (0.2 uM, 1h): < 0.20
Relative Levels of peptide ASQPDVDGFLVGGASLKPEFVDIINAKQ (TPI1) (0.2 uM, 1h): 1.17 and 1.09
Relative Levels of peptide AVDGEPLGRVSF (PPIA) (0.2 uM, 1h): < 0.20
Relative Levels of peptide Ac-AAPVDLELKKAFTEL (PFDN1) (0.2 uM, 1h): < 0.20
Relative Levels of peptide Ac-ANLERTFIAIKPDGV (NME2) (0.2 uM, 1h): < 0.20
Relative Levels of peptide Ac-ASKRALVIL (PARK7) (0.2 uM, 1h): < 0.20
Relative Levels of peptide Ac-ASKRALVILA (PARK7) (0.2 uM, 1h): < 0.20
Relative Levels of peptide Ac-MDTSRVQPIKL (RPS28) (0.2 uM, 1h): < 0.20
Relative Levels of peptide Ac-MDTSRVQPIKLAR (RPS28) (0.2 uM, 1h): 0.95
Relative Levels of peptide Ac-SSEEGKLFVGGLNF (RBM3) (0.2 uM, 1h): < 0.20
Relative Levels of peptide Ac-SYGRPPPDVEGMTSLKVDNL (SRSF2) (0.2 uM, 1h): 0.23 and 0.32
Relative Levels of peptide Ac-[…] (COX6B1) (0.2 uM, 1h): < 0.20
Relative Levels of peptide EDENFILKHTGPGILSM (PPIA) (0.2 uM, 1h): < 0.20
Relative Levels of peptide GAIRDIDL (SRSF1) (0.2 uM, 1h): 0.29 and 0.33
Relative Levels of peptide GFGDLKSPAGLQVL (EEF1B2) (0.2 uM, 1h): < 0.20
Relative Levels of peptide GISTPEELGLDKV (COX5A) (0.2 uM, 1h): < 0.20
Relative Levels of peptide GVQVETISPGDGRTFPKRGQT (FKBP1A) (0.2 uM, 1h): 0.72 and 0.45
Relative Levels of peptide KHTGPGILSM (PPIA) (0.2 uM, 1h): < 0.20
Relative Levels of peptide PGIVELPTLEEL (NDUFA8) (0.2 uM, 1h): < 0.20
Relative Levels of peptide SAMTEEAAVAIKAMAK (EIF5A) (0.2 uM, 1h): 0.36 and 0.21
Relative Levels of peptide SLGELIGTLNA (TPI1) (0.2 uM, 1h): 0.29 and < 0.20
Relative Levels of peptide VNPTVFFDI (PPIA) (0.2 uM, 1h): < 0.20
Relative Levels of peptide AAETVTKGGIMLPEKSQGKVLQA (HSPE1) (2 uM, 1h): < 0.20
Relative Levels of peptide ADKVPKTAENFRAL (PPIA) (2 uM, 1h): < 0.20
Relative Levels of peptide AGAAVDELGKVLTPTQV (PEBP1) (2 uM, 1h): < 0.20
Relative Levels of peptide AKADGIVSKNF (RPS21) (2 uM, 1h): < 0.20
Relative Levels of peptide APIKVGDAIPAVEVF (PRDX5) (2 uM, 1h): < 0.20
Relative Levels of peptide ASQPDVDGFLVGGASLKPEFVDIINA (TPI1) (2 uM, 1h): < 0.20
Relative Levels of peptide ASQPDVDGFLVGGASLKPEFVDIINAKQ (TPI1) (2 uM, 1h): < 0.20
Relative Levels of peptide AVDGEPLGRVSF (PPIA) (2 uM, 1h): < 0.20
Relative Levels of peptide Ac-AAPVDLELKKAFTEL (PFDN1) (2 uM, 1h): < 0.20
Relative Levels of peptide Ac-AEEGIAAGGVMDVNTALQEVLKT (RPS12) (2 uM, 1h): 0.61 and 0.42
Relative Levels of peptide Ac-ANLERTFIAIKPDGV (NME2) (2 uM, 1h): < 0.20
Relative Levels of peptide Ac-ASKRALVIL (PARK7) (2 uM, 1h): < 0.20
Relative Levels of peptide Ac-ASKRALVILA (PARK7) (2 uM, 1h): < 0.20
Relative Levels of peptide Ac-MDTSRVQPIKL (RPS28) (2 uM, 1h): < 0.20
Relative Levels of peptide Ac-MDTSRVQPIKLAR (RPS28) (2 uM, 1h): 0.64 and 0.94
Relative Levels of peptide Ac-MDTSRVQPIKLARVTKV (RPS28) (2 uM, 1h): < 0.20
Relative Levels of peptide Ac-SSEEGKLFVGGLNF (RBM3) (2 uM, 1h): < 0.20
Relative Levels of peptide Ac-SYGRPPPDVEGMTSLKVDNL (SRSF2) (2 uM, 1h): < 0.20
Relative Levels of peptide EDENFILKHTGPGILSM (PPIA) (2 uM, 1h): < 0.20
Relative Levels of peptide GESDDSILRLAKADGIVSKNF (RPS21) (2 uM, 1h): < 0.20
Relative Levels of peptide GFGDLKSPAGLQVL (EEF1B2) (2 uM, 1h): 0.54 and 0.68
Relative Levels of peptide GISTPEELGLDKV (COX5A) (2 uM, 1h): 0.38 and 0.45
Relative Levels of peptide KHTGPGILSM (PPIA) (2 uM, 1h): < 0.20
Relative Levels of peptide PGIVELPTLEEL (NDUFA8) (2 uM, 1h): < 0.20
Relative Levels of peptide SAMTEEAAVAIKAMAK (EIF5A) (2 uM, 1h): < 0.20
Relative Levels of peptide SLGELIGTLNA (TPI1) (2 uM, 1h): 0.52 and 0.30
Relative Levels of peptide VNPTVFFDI (PPIA) (2 uM, 1h): < 0.20

CC(=O)N[C@@H](CSC(=O)[C@]1([C@@H](O)C(C)C)NC(=O)[C@H](C)[C@@H]1O)C(=O)O [Lactacys]
Relative Levels of peptide AKADGIVSKNF (RPS21) (1 uM, 35'): 0.16 and 0.15
Relative Levels of peptide Ac-ASKRALVIL (PARK7) (1 uM, 35'): < 0.20 and 0.26
Relative Levels of peptide Ac-ASKRALVILA (PARK7) (1 uM, 35'): 0.29 and 0.31
Relative Levels of peptide Ac-MDTSRVQPIKL (RPS28) (1 uM, 35'): 0.31 and 0.28
Relative Levels of peptide Ac-MDTSRVQPIKLAR (RPS28) (1 uM, 35'): 0.52 and 0.70
Relative Levels of peptide Ac-SSEEGKLFVGGLNF (RBM3) (1 uM, 35'): 0.39 and 0.30
Relative Levels of peptide Ac-SYGRPPPDVEGMTSLKVDNL (SRSF2) (1 uM, 35'): 0.40 and 0.50
Relative Levels of peptide GAIRDIDL (SRSF1) (1 uM, 35'): < 0.20
Relative Levels of peptide GFGDLKSPAGLQVL (EEF1B2) (1 uM, 35'): 0.19 and 0.14
Relative Levels of peptide GVQVETISPGDGRTFPKRGQT (FKBP1A) (1 uM, 35'): 0.31 and 0.26
Relative Levels of peptide KHTGPGILSM (PPIA) (1 uM, 35'): 0.25 and 0.22
